Our source for the IC50 values is patent publication US8318767B2, “Substituted imidazoles as bombesin receptor subtype-3 modulators” (Merck Sharp & Dohme Corp, priority 2006, dated 2012).

SMILES strings stand for the structures.

This assay deals with T1, human BRS-3 (Homo sapiens, UniProt P32247).
T1 construct: expressed in transfected cells
T1 sequence (P32247 1-399): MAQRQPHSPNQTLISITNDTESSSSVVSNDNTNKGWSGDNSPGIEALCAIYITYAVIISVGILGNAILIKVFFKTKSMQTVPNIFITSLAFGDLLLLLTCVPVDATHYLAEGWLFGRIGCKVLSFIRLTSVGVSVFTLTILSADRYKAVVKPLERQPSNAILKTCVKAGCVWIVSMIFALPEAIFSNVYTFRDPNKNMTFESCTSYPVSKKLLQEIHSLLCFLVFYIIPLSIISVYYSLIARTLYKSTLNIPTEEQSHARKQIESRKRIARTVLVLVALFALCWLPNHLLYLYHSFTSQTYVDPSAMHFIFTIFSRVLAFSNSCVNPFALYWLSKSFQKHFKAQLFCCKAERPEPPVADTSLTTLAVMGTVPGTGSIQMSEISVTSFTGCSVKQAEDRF
As to the kind of experiment: Bombesin Receptor Subtype 3 (BRS3) radioligand binding assay. To be noted: selected compounds. Here is the method:
Human embryonic kidney (HEK 293) cells expressing human BRS-3 were cultured to confluence and harvested by aspirating the culture medium and rinsing twice with 1×PBS without Mg^++ and Ca^++. Cellstriper Solution (Cellgrow #25-056-C1, 3 mL) was added to each T-175 flask until all cells dissociated and then an additional 15 mL 1×PBS without Mg^++ and Ca^++ were added to each flask. Dissociated cells were collected by centrifuging at 1000 rpm for 10 minutes. Cell pellets were resuspended and homogenized at 4° C. using a Polytron homogenizer (setting 40, 20 stokes) in approximately 10 mL membrane preparation buffer (10 mM Tris pH 7.4, 0.01 mM Pefabloc, 10 μM phosphoramidon and 40 μg/mL Bacitracin) per T175 flask. After centrifugation at 2200 rpm (1000×g) for 10 minutes at 4° C., the supernatant was transferred to a clean centrifuge tube and spun at 18,000 rpm (38,742×g) for 15 minutes. at 4° C. Membranes were resuspended in the above membrane preparation buffer (1 mL/T-175 flask), homogenized, aliquoted, quickly frozen in liquid nitrogen and stored at −80° C.
For the [^125I]-[D-Tyr^6,β-Ala^11,Phe^13,Nle^14]-Bombesin(6-14), “[^125I]-dY-peptide”, radioligand assay the specific binding of [^125I]-dY-peptide to human BRS3 was measured by filtration assay in 96-well plate format. The receptor membrane (2 μg/well) in binding buffer (50 mM Tris pH 7.4, 5 mM MgCl2, 0.1% BSA and protease inhibitor cocktail) was mixed with compound in DMSO (1% final concentration) and 30 pM [^125I]-dY-peptide. After incubation for 1-2 hours at room temperature, membrane-bound [^125I]-dY-peptide was separated from free [^125I]-dY-peptide by filtering through GF/C filters presoaked in 1% PEI solution. The filters were washed five times with ice-cold washing buffer (1×PBS without Mg^++ and Ca^++). The radioactivity was determined by adding 30 μl of microscintillant/well after each plate was dried at room temperature overnight or placed at 50° C. for 1 hr.
The radioligand, [^3H]-1-{4-[(4,5-difluoro-2-hydroxycarbonylphenyl)phenyl]}-2-(4-cyclohexylmethyl-1H-imidazol-2-yl)ethane, was used for binding to receptor membranes generated with BRS3 from rat and mouse and was also utilized for the human receptor. Cell membranes (5 to 20 μg/well) were added to binding buffer (25 mM Tris pH 7.4, 10 mM MgCl2, 2 mM EDTA and protease I cocktail) containing compound in DMSO (1% final concentration) and 660 pM [^3H]-biphenyl. After incubation for 1-2 hours at room temperature, membrane bound [^3H]-biphenyl was separated from free radiologand by filtering through GF/C filters presoaked in 1% PEI solution. The filters were washed five times with ice-cold washing buffer (50 mM Tris pH 7.4, 10 mM MgCl2, 2.5 mM EDTA and 0.02% Triton X-100). The radioactivity was determined by adding 30 μl of microscintillant/well after each plate was dried at room temperature overnight or placed at 50° C. for 1 hr.
A Packard Top Count was used to read the filter plates. The data in % inhibition of binding was plotted vs. the log molar concentration of receptor ligand (compound). The IC50 was reported as the inflection point of the resulting sigmoidal curve.
The binding assays for the rat and mouse Bombesin Receptor Subtype 3 (BRS3) were performed in a similar fashion.
An NFATCHO cell line stably expressing human BRS3 cDNA was generated using standard cell biology techniques and used to prepare receptor membranes for the human “[^125I]-dY-peptide binding assay. The cell line was cultured in T175 flasks in Iscove's Modified Dulbecco's Medium with L-glutamine and 25 mM HEPES buffer (Gibco #12440-046) supplemented with 10% FBS (cat#SH30070.03, Hyclone, Logan, Utah), 1×HT Supplement (0.1 mM Sodium Hypoxanthine and 16 μM Thymidine Gibco #11067-030), 2 mM L-glutamine (Gibco #25030-081), 100 units/mL Penicillin-G and 100 μg/mL Streptomycin (Gibco #15140-122) and 1 mg/mL Geneticin (Gibco #10131-027).
What is called IC50 is the concentration needed to halve the response being measured. Regarding `CCNC(Cc1ccc(-c2ccccn2)cc1)c1nc(CC(C)(C)C)c[nH]1` (stereo not drawn) [Example 3, 1-[4-(2,2-dimethylpropyl)-1H-imidazol-2-yl]-N-ethyl-2-(4-pyridin-2-ylphenyl)ethanamine], the IC50 is 245 nM. This counts as sub-micromolar.
Turning to `CC(C)(C)Cc1c[nH]c(C(O)Cc2ccc(-c3ccccn3)cc2)n1` (stereo not drawn) [Example 1, 1-[4-(2,2-dimethylpropyl)-1H-imidazol-2-yl]-2-(4-pyridin-2-ylphenyl)ethanol], the IC50 was 120 nM. This IC50 lies about 2-fold lower than the previous one.
Under `CC(=O)NC(Cc1ccc(-c2ccc(F)cn2)cc1)c1nc(CC(C)(C)C)c[nH]1` (stereo not drawn) [Example 9, N-{1-[4-(2,2-dimethylpropyl)-1H-imidazol-2-yl]-2-[4-(5-fluoropyridin-2-yl)phenyl]ethyl}acetamide] stands 220 nM; under `CC(C)(C)Cc1c[nH]c(C(O)Cc2ccc(-c3ccc(F)cn3)cc2)n1` (stereo not drawn) [Example 18, 1-[4-(2,2-dimethylpropyl)-1H-imidazol-2-yl]-2-[4-(5-fluoropyridin-2-yl)phenyl]ethanol], 110 nM; under `CC(C)(C)Cc1c[nH]c(C(C)(O)Cc2ccc(-n3cccn3)cc2)n1` (stereo not drawn) [Example 33, 2-[4-(2,2-dimethylpropyl)-1H-imidazol-2-yl]-1-[4-(1H-pyrazol-1-yl)phenyl]propan-2-ol], 195 nM.
In the case of `CC(C)(C)Cc1c[nH]c(C(C)(O)Cc2ccc(-c3ccc(F)cn3)cc2)n1` (stereo not drawn) [Example 15, 2-[4-(2,2-dimethylpropyl)-1H-imidazol-2-yl]-1-[4-(5-fluoropyridin-2-yl)phenyl]propan-2-ol], the IC50 came to 190 nM. This IC50 and that of the compound before are within 1.5-fold of each other.
Consider `CCC(C)(C)Cc1c[nH]c(C(C)(O)Cc2ccc(-c3ccc(F)cn3)cc2)n1` (stereo not drawn) [Example 29, 2-[4-(2,2-dimethylbutyl)-1H-imidazol-2-yl]-1-[4-(5-fluoropyridin-2-yl)phenyl]propan-2-ol], for which the 50% inhibitory concentration (IC50) came out at 58 nM.
Under `CCC(C)(C)Cc1c[nH]c(C(Cc2ccc(-c3ccc(F)cn3)cc2)NC)n1` (single isomer, unassigned) [Example 6, 1-[4-(2,2-dimethylbutyl)-1H-imidazol-2-yl]-2-[4-(5-fluoropyridin-2-yl)phenyl]-N-methylethanamine] stands 285 nM; under `CCC(C)(C)Cc1c[nH]c(C2(Cc3ccc(-c4ccc(F)cn4)cc3)CCCN2)n1` (stereo not drawn) [Example 55, 2-[4-({2-[4-(2,2-dimethylbutyl)-1H-imidazol-2-yl]pyrrolidin-2-yl}methyl)phenyl]-5-fluoropyridine], 5.1 nM.
